Data on one molecule can be found in patent US20170313669A1, “LACTONE COMPOUNDS AND METHODS OF MAKING AND USING SAME” (THE SCRIPPS RESEARCH INSTITUTE, priority 2015, published 2017).

As a reminder, the IC50 is the midpoint of a concentration-inhibition curve.

One test deals with ABHD12−/− macrophages. The experiment in a line: Lyso-PS and cytokine secretion of ABHD12−/− macrophages. It counts as cell-based, mouse. The note with it: pre-treatment 1 μM, 4 h. How it is done:
(a, b) Concentrations of secreted cytokines from ABHD12^+/+ and ABHD12^−/− thioglycollate-elicited peritoneal macrophages that were either unstimulated (PBS) (a) or stimulated (b) with LPS (5 μg/mL, 7 h). […] Student's t-test: * p<0.05 for ABHD12^−/− and ABHD12^+/+ groups. (c) Concentrations of secreted lyso-PS from ABHD12^+/+ and ABHD12^−/− macrophages treated with vehicle (PBS) or LPS (5 μg/mL) for 7 h. […] Student's t-test: ** p<0.0005, *** p<0.0001 for KC01-treated versus DMSO-treated groups.
Peritoneal macrophages were elicited and harvested from mice according to the standard protocols available from LIPID MAPS (See http://www.lipidmaps.org/protocols/PP0000001400.pdf and http://www.lipidmaps.org/protocols/PP0000001500.pdf). After removal of the RBC lysis buffer, the macrophages were re-suspended in RPMI 1640 with 10% FCS and IX penicillin-streptomycin. Cell counts measured using a Bio-Rad TC10 automated cell counter, and equal numbers of cells (2×10^6) were plated in 10 cm tissue culture dishes. Macrophages were allowed to adhere to the plates for 2 h at 37° C. and 5% CO2. […] Macrophages were then stimulated with lipopolysaccharide (5 μg/mL) for 7 hours. Sterile PBS was the vehicle in these studies. Four milliliters of the media was used for measuring secreted metabolites, and 0.5 mL was used for cytokine measurements.

Test [1] has as its system human lymphoblast cell lines (LCLs). The experiment in a line: Lyso-PS content of treated LCLs. The conditions noted are these: 1 μM, 4 h. It is filed as cell-based. How it is done: ABHD16A^+/+, ABHD16A^+/+, and ABHD16A^−/− littermates of 10 weeks age were anaesthetized by isoflurane and killed by decapitation. The tissues (brains were sliced laterally into two hemispheres; entire spinal cord) were harvested, weighed, and immediately submerged in liquid N2. Tissues (one half brain or entire spinal cord) were then Dounce-homogenized in 8 mL of 2:1:1 (vol/vol/vol) CHCl3: MeOH: PBS containing the internal standard mix (1 nmol 17:1 FFA, and 100 pmol each of 17:1 lyso-PS, 17:0-20:4 PS, 17:1 lyso-PC, 17:0-20:4 PC, 17:0-20:4 PE and 50 pmol of 2-AG-d5). Homogenates were transferred to a glass vial and centrifuged at 2800×g for 10 minutes to separate the two phases. The organic phase (bottom) was removed, 200 μL of formic acid was added to acidify the aqueous homogenate (to enhance extraction of phospholipids), and CHCl3 was added to make up 8 mL volume. […]
All the metabolites analyzed in this study were quantified using the multiple reaction monitoring (MRM) methods the targeted LC/MS analysis was done using an Agilent Technologies 6460 Triple Quad LC/M with an Agilent Technologies 1290 Infinity series quaternary pump. All data was collected using the LC/MS Data Acquisition mode of the Mass Hunter Workstation Software version B.05.00 build 5.0.5027.0 SP, and analyzed using the Quantitative Analysis mode of the same software. […]

In a further test the target is T1, mouse ABHD16A (Mus musculus, UniProt Q9Z1Q2).
T1 construct: full-length cDNA of human ABHD16A (Open Biosystems Catalog # MHS6278-202758315) or murine ABHD16A (Open Biosystems Catalog # MMM1013-202760516); host or cells: HEK293T, transient, pCMV-SPORT6
T1 sequence (Q9Z1Q2 1-558): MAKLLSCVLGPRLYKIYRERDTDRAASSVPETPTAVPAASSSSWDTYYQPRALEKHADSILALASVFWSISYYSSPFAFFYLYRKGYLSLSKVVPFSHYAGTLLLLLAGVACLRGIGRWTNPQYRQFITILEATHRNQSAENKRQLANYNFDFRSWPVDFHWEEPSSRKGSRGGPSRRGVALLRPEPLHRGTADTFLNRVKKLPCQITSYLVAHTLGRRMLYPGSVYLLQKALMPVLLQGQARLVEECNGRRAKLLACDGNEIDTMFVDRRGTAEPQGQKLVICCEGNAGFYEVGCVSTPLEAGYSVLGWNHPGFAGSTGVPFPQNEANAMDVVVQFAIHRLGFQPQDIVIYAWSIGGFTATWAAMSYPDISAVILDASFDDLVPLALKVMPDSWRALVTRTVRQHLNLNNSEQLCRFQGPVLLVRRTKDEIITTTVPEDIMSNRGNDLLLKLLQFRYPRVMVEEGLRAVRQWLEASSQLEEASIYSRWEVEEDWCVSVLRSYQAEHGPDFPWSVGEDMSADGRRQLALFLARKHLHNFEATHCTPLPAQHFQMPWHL
The experiment in a line: PS substrate assay, mouse ABHD16A-transfected HEK293T proteome. It counts as biochemical. The note with it: 30 min, 37° C.; C18:0/C18:2 PS 100 μM; read-out: IC50, PS-lipase activity.

Consider `CCCCCCCCCCCCCC1OC(=O)/C1=C\CCCCC(N)=O` (stereo not shown) [KC01, (Z)-6-(2-oxo-4-tridecyloxetan-3-ylidene)hexanamide], for which the “LPS-induced increases in lyso-PSs and cytokine secretion” value in the test on ABHD12−/− macrophages is “both blocked”. For the same molecule, the “secreted lyso-PSs” value in test [1] (ABHD12-null LCL) is “significantly lowered”. Also, the “cellular lyso-PSs” value in test [1] (all LCLs) was “decreased cellular lyso-PSs”. The IC50 at mouse ABHD16A was 520 ± 70 nM.
